Assay results as given in US20070128217A1 (priority 2003, published 2007).

Columns and labels:
[1] = tested on: rabbit serum obtained by immunizing a rabbit with the SARS-CoV strain Frankfurt 1; type: binding; set-up: Binding of a rabbit serum to linear peptides / Binding of a rabbit serum to looped peptides / Rabbit serum linear peptides / Rabbit serum looped peptides / Binding of a rabbit serum to linear peptides of protein N of SARS-CoV Urbani (Rabbit serum linear peptides) / Binding of a rabbit serum to looped/cyclic peptides of protein N of SARS-CoV Urbani (Rabbit serum looped peptides): unit not given here
[2] = tested on: recombinant human anti-SARS-CoV antibody 03-018; type: binding; set-up: Binding of antibody 03-018 to linear peptides of the N protein of SARS-CoV Urbani / Binding of antibody 03-018 to looped/cyclic peptides of the N protein of SARS-CoV Urbani: unit not given here
[3] = tested on: antibodies in sera from SARS patients (sera 1a, 1b, 2, 6, 37, 62, London, SARS-yellow, SARS-green); type: binding, human; set-up: Binding of serum 6 to linear peptides of protein X1 of SARS-CoV Urbani / Binding of serum 37 to linear peptides of protein X1 of SARS-CoV Urbani / Binding of serum 6 to looped/cyclic peptide (PEPSCAN-ELISA) / Binding of serum 37 to looped/cyclic peptide (PEPSCAN-ELISA) / Binding of serum 37 to looped/cyclic peptides of protein X1 of SARS-CoV Urbani / Binding of serum 6 to linear peptides of protein X2 / Binding of serum 37 to linear peptides of protein X2 / Binding of serum 37 to looped/cyclic peptides of protein X2 of SARS-CoV Urbani / Binding of serum 6 to linear peptides of protein M of SARS-CoV Urbani / Binding of serum 37 to linear peptides of protein M of SARS-CoV Urbani / Binding of serum 6 to looped/cyclic peptides of protein M of SARS-CoV Urbani / Binding of serum 37 to looped/cyclic peptides of protein M of SARS-CoV Urbani / Binding of serum 6 to linear peptides of protein X3 of SARS-CoV Urbani / Binding of serum 37 to linear peptides of protein X3 of SARS-CoV Urbani / Binding of serum 37 to looped/cyclic peptides of protein X3 of SARS-CoV Urbani / Binding of serum 6 to linear peptides of protein X4 of SARS-CoV Urbani / Binding of serum 37 to linear peptides of protein X4 of SARS-CoV Urbani / Binding of serum 37 to looped/cyclic peptides of protein X4 of SARS-CoV Urbani / Binding of serum 6 to linear peptides of protein X5 of SARS-CoV Urbani / Binding of serum 37 to linear peptides of protein X5 of SARS-CoV Urbani / Binding of serum 37 to looped/cyclic peptides of protein X5 of SARS-CoV Urbani / Binding of serum 6 to linear peptides of protein N of SARS-CoV Urbani / Binding of serum 37 to linear peptides of protein N of SARS-CoV Urbani / Binding of serum 6 to linear peptide (PEPSCAN-ELISA) / Binding of serum 1a to looped/cyclic peptides of protein N of SARS-CoV Urbani / Binding of serum 1b to looped/cyclic peptides of protein N of SARS-CoV Urbani / Binding of serum 2 to looped/cyclic peptides of protein N of SARS-CoV Urbani / Binding of serum 6 to looped/cyclic peptides of protein N of SARS-CoV Urbani / Binding of serum 37 to looped/cyclic peptides of protein N of SARS-CoV Urbani / Binding of serum 62 to looped/cyclic peptides of protein N of SARS-CoV Urbani / Binding of serum London to looped/cyclic peptides of protein N of SARS-CoV Urbani / Binding of serum SARS-green to looped/cyclic peptides of protein N of SARS-CoV Urbani: unit not given here
[4] = tested on: control sera (pooled serum of ten healthy LUMC hospital workers; commercial negative donor pooled serum from the Dutch bloodbank); type: binding, human; set-up: Binding of Control serum LUMC to linear peptides / Binding of Control serum Blood-bank to linear peptides / Binding of Control serum LUMC to looped peptides / Binding of Control Serum Blood-Bank to Looped peptides / Binding of Control serum LUMC to linear peptides of the protein M of SARS-CoV Urbani / Binding of Control serum Blood-bank to linear peptides of the protein M of SARS-CoV Urbani / Binding of Control serum LUMC to looped peptides of the protein M of SARS-CoV Urbani / Binding of Control Serum Blood-Bank to Looped peptides of the protein M of SARS-CoV Urbani: unit not given here

Sequence	Binding of a rabbit serum to linear peptides of protein N of SARS-CoV Urbani (Rabbit serum linear peptides) [1]	Binding of a rabbit serum to looped/cyclic peptides of protein N of SARS-CoV Urbani (Rabbit serum looped peptides) [1]	Binding of antibody 03-018 to linear peptides of the N protein of SARS-CoV Urbani [2]	Binding of antibody 03-018 to looped/cyclic peptides of the N protein of SARS-CoV Urbani [2]	Binding of serum 1a to linear peptides of protein N of SARS-CoV Urbani [3]	Binding of serum 1a to looped/cyclic peptides of protein N of SARS-CoV Urbani [3]	Binding of serum 1b to linear peptides of protein N of SARS-CoV Urbani [3]	Binding of serum 1b to looped/cyclic peptides of protein N of SARS-CoV Urbani [3]	Binding of serum 2 to linear peptides of protein N of SARS-CoV Urbani [3]	Binding of serum 2 to looped/cyclic peptides of protein N of SARS-CoV Urbani [3]	Binding of serum 6 to looped/cyclic peptides of protein N of SARS-CoV Urbani [3]	Binding of serum 37 to looped/cyclic peptides of protein N of SARS-CoV Urbani [3]	Binding of serum 62 to looped/cyclic peptides of protein N of SARS-CoV Urbani [3]	Binding of serum London to looped/cyclic peptides of protein N of SARS-CoV Urbani [3]	Binding of serum SARS-green to looped/cyclic peptides of protein N of SARS-CoV Urbani [3]	Binding of serum SARS-yellow to looped/cyclic peptides of protein N of SARS-CoV Urbani [3]	Binding of Control Serum Blood-Bank to Looped peptides [4]	Binding of Control serum Blood-bank to linear peptides [4]	Binding of Control serum LUMC to linear peptides [4]	Binding of Control serum LUMC to looped peptides [4]	further results
TEGALNTPKDHIGTR	0.2	0.0	0.2	0.3	0.2	0.3	0.1	0.2	0.2	0.5	0.4	0.5	0.6	0.4	0.6	0.4	0.7	1.0	0.9	0.7	Binding of serum 6 to linear peptides of protein N of SARS-CoV Urbani [3]: 0.2; Binding of serum 37 to linear peptides of protein N of SARS-CoV Urbani [3]: 0.7; Binding of serum 62 to linear peptides of protein N of SARS-CoV Urbani [3]: 0.7; Binding of serum London to linear peptides of protein N of SARS-CoV Urbani [3]: 0.5; Binding of serum SARS-green to linear peptides of protein N of SARS-CoV Urbani [3]: 0.6; Binding of serum SARS-yellow to linear peptides of protein N of SARS-CoV Urbani [3]: 0.6
RNGARPKQRRPQGLP	0.1	0.2	0.1	0.3	0.2	0.2	0.1	0.1	0.2	0.3	0.2	0.5	0.4	0.4	0.3	0.2	0.5	0.8	0.6	0.6	Binding of serum 6 to linear peptides of protein N of SARS-CoV Urbani [3]: 0.2; Binding of serum 37 to linear peptides of protein N of SARS-CoV Urbani [3]: 0.6; Binding of serum 62 to linear peptides of protein N of SARS-CoV Urbani [3]: 0.6; Binding of serum London to linear peptides of protein N of SARS-CoV Urbani [3]: 0.5; Binding of serum SARS-green to linear peptides of protein N of SARS-CoV Urbani [3]: 0.4; Binding of serum SARS-yellow to linear peptides of protein N of SARS-CoV Urbani [3]: 0.5
QQGQTVTKKSAAEAS	0.2	0.0	0.1	0.2		0.5		0.4		0.5	0.3	0.6	0.5	0.4	0.8	0.5	0.5	0.8	0.7	0.5	Recognition of the peptide by sera of SARS-CoV infected individuals, and form (linear, looped/cyclic) in which it is recognized [3]: recognized in linear form
LNQLESKVSGKGQQQ	0.2	0.4	0.1	0.3		0.4		0.3		0.6	0.4	0.6	0.6	0.5	0.5	0.8	0.7	0.8	0.7	0.7	Binding of serum 1a to linear peptide (PEPSCAN-ELISA) [3]: 0.3; Binding of serum 1b to linear peptide (PEPSCAN-ELISA) [3]: 0.1; Binding of serum 2 to linear peptide (PEPSCAN-ELISA) [3]: 0.3; Binding of serum 6 to linear peptide (PEPSCAN-ELISA) [3]: 0.2; Binding of serum 37 to linear peptide (PEPSCAN-ELISA) [3]: 0.7; Binding of serum 62 to linear peptide (PEPSCAN-ELISA) [3]: 0.9; Binding of serum London to linear peptide (PEPSCAN-ELISA) [3]: 0.6; Binding of serum SARS-green to linear peptide (PEPSCAN-ELISA) [3]: 0.4; Binding of serum SARS-yellow to linear peptide (PEPSCAN-ELISA) [3]: 0.7
TGPEASLPYGANKEG	0.1	0.5	0.1	0.2	0.3	0.3	0.2	0.2	0.3	0.5	0.4	0.6	0.5	0.6	0.7	0.4	0.8	0.9	1.1	0.6	Binding of serum 6 to linear peptides of protein N of SARS-CoV Urbani [3]: 0.3; Binding of serum 37 to linear peptides of protein N of SARS-CoV Urbani [3]: 0.7; Binding of serum 62 to linear peptides of protein N of SARS-CoV Urbani [3]: 0.9; Binding of serum London to linear peptides of protein N of SARS-CoV Urbani [3]: 0.7; Binding of serum SARS-green to linear peptides of protein N of SARS-CoV Urbani [3]: 0.8; Binding of serum SARS-yellow to linear peptides of protein N of SARS-CoV Urbani [3]: 0.6
